Assay results published in US6060241A (priority 1997, dated 2000).

Legend:
[1] = molecular target: T1, Hp 3-oxoacid CoA-transferase (Helicobacter pylori, UniProt P56006+P56007); test: 3-oxoacid CoA transferase activity reconstituted in E. coli, in the presence of inhibitors; format: biochemical; settings: for Specific activity (mU/mg ± SD), 3-oxoacid CoA transferase, E. coli transformed with pCOA-t: substances (50 nM), lysate of E. coli transformed with pCoA-t, none = 2255 ± 7; for inhibition of Hp CoA-transferase (in words): statement that refers to Example 11
T1 construct: second column endogenous enzyme in H. pylori lysate
T1 sequence (P56006 whole entry): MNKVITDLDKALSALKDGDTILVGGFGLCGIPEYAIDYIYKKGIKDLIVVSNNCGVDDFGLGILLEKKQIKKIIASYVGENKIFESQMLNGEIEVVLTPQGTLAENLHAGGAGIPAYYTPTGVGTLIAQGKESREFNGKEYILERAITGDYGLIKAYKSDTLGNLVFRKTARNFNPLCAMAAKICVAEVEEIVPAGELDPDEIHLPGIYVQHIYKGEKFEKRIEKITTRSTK
T1 sequence (P56007 whole entry): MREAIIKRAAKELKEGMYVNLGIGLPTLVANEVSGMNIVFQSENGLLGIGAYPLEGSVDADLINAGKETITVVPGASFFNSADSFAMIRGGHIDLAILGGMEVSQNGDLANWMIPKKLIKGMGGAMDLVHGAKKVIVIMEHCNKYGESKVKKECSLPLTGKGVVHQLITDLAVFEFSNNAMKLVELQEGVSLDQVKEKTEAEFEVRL
Procedure: For 3-oxoadipate-CoA and 3-oxoacid CoA-transferase assays (FIGS. 7A, 7B, and 7C), E. coli cells transformed with pCoAT, which contains A^73 TGAA-TATAG^1394 of SEQ ID NO.:1 or with pUrea a plasmid containing the gene for urease (Labigne et al., J. Bacteriol. 173:1920-1931 (1991)) as a negative control, were washed once with M9 salts minimal medium (Molecular Cloning, a laboratory manual, Sambrook, Fritsch and Maniatis, second edition), pellets were stored at -20° C. until just prior to disruption. Thawed cell pellets were resuspended in 1 ml 50 mM phosphate buffer (pH 6.8), 1 mM dithiothreitol (Merck). Cell suspensions were disrupted by sonication and cellular debris removed by centrifugation. For butyrate-acetoacetate-CoA-transferase assays, the buffer used for cell wash and pellets resuspension was: 50 mM MOPS (pH 7.0), 0.5 M (NH4)2SO4, 20% (v/v) glycerol, 1 mM EDTA. Protein concentration in cellular extracts was determined by Bradford's method (1976) using γ globulin as standard (Bio-Rad) and activity expressed in U/mg of protein.
(§1) Activity was measured by monitoring the increase in A310 corresponding to the formation of acetoacetyl-CoA, as previously described (Howard et al., 1986). The assay contained 67 mM acetoacetate (Aldrich), 300 μM succinyl-CoA and 15 mM MgCl2 in 50 mM Tris-HCl pH 9.1. Under the experiment conditions, ε=7,800 M^-1 cm^-1.
(§2) The activity assay was performed as described in Example 8 in the presence of the indicated inhibitors. The results are presented below in Table 6

[2] = molecular target: T1, Hp 3-oxoacid CoA-transferase; test: 3-oxoacid CoA transferase activity endogenous in H. pylori lysates, in the presence of inhibitors; format: biochemical; settings: substances (50 nM); endogenous enzyme in H. pylori lysate; none = 25 ± 1
Procedure: as §1
(§3) The activity assay was performed as described in Example 8, using H. pylori cell lysates.
as §2

[3] = molecular target: 3 oxo acid CoA-transferase (Helicobacter pylori, UniProt P56006+P56007); test: Reverse reaction of CoA-transferase, disappearance of acetoacetyl CoA at 310 nm; format: biochemical; settings: Hp 69A + 2 mM iodoacetamide; Hp 69A alone = 227 ± 4
3 oxo acid CoA-transferase, sequence (P56007 whole entry): as above
3 oxo acid CoA-transferase, sequence (P56006 whole entry): as the sequence (P56006 whole entry) above
Text: As described above, CoA-transferase also catalyzes the reverse reaction, acetoacetyl CoA+succinate→acetoacetate+succinyl CoA. This additional 3-oxoacid CoA-transferase activity is examined in transformed E. coli and H. pylori by measuring the disappearance of acetoacetyl CoA at 310 nm.

acetoacetyl CoA thiolase = molecular target: T2, acetoacetyl CoA thiolase (Helicobacter pylori, UniProt O25399); test: biochemical; format: biochemical
T2 construct: mouse-adapted P49 used for mutants
T2 sequence (O25399 entry or part of it): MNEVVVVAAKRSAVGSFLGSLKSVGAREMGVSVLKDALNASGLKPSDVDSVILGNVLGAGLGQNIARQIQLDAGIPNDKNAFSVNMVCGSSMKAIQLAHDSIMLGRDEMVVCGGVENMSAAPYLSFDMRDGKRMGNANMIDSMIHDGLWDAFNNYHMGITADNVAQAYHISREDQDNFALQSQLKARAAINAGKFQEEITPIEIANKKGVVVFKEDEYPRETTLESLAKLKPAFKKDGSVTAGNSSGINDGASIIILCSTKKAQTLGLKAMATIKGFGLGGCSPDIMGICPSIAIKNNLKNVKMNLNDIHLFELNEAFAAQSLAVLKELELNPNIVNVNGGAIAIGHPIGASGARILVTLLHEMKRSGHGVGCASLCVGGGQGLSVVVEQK
Procedure: as §1, §3
The only CoA-transferase activity detected in H. pylori lysates was the one leading to the formation of acetoacetyl CoA from succinyl CoA and acetoacetate in the presence of Mg^2+.

[4] = molecular target: mammalian CoA-transferase (Homo sapiens, UniProt P55809); test: Effect on the mammalian CoA-transferase; settings: statement that refers to Example 11; no mammalian data printed
mammalian CoA-transferase, sequence (P55809 40-520): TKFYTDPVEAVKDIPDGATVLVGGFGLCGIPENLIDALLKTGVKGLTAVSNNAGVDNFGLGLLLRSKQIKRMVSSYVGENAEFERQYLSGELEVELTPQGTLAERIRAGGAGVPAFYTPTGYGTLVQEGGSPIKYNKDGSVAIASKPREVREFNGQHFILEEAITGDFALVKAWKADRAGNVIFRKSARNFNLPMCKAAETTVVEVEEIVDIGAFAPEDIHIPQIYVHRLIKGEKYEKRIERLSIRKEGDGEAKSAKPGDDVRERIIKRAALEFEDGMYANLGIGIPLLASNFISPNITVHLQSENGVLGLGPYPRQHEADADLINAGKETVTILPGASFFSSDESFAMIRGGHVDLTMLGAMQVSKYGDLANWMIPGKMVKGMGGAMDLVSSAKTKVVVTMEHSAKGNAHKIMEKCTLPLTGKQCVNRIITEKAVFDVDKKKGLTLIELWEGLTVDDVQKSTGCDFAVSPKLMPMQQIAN

O=C(O)CC(O)C(=O)O (stereo not drawn) [monosodium malate]
Specific activity (mU/mg ± SD), 3-oxoacid CoA transferase, E. coli transformed with pCOA-t [1]: 131 ± 0 mU/mg | Specific activity (mU/mg ± SD), 3-oxoacid CoA transferase, H pytori [2]: 22 ± 8 mU/mg

NC(=O)CI [iodoacetamide]
Specific activity (mU/mg), reverse reaction [3]: 257 ± 0 mU/mg | CoA transferase specific activity (acetoacetyl CoA thiolase; 2 mM iodoacetamide, H. pylori lysate, 25±2 mU/mg without iodoacetamide): 60±2 mU/mg | fold induction at 2000 µM (acetoacetyl CoA thiolase; read-out: increase of CoA transferase specific activity): 2.5

N[C@@H](CC(=O)O)C(=O)[O-].[Na+] [monosodium aspartate]
Specific activity (mU/mg ± SD), 3-oxoacid CoA transferase, E. coli transformed with pCOA-t [1]: 1859 ± 151 mU/mg | Specific activity (mU/mg ± SD), 3-oxoacid CoA transferase, H pytori [2]: 24 ± 1 mU/mg

COC(=O)CCC(=O)O [methyl succinic ester]
Specific activity (mU/mg ± SD), 3-oxoacid CoA transferase, E. coli transformed with pCOA-t [1]: 58 ± 49 mU/mg | Specific activity (mU/mg ± SD), 3-oxoacid CoA transferase, H pytori [2]: 14 ± 3 mU/mg

O=C(O)CCCC(=O)O [glutaric acid]
Specific activity (mU/mg ± SD), 3-oxoacid CoA transferase, E. coli transformed with pCOA-t [1]: 31 ± 7 mU/mg | Specific activity (mU/mg ± SD), 3-oxoacid CoA transferase, H pytori [2]: 16 ± 5 mU/mg

CC(CC(=O)O)C(=O)O (stereo not drawn) [methyl succinic acid]
inhibition of Hp CoA-transferase (in words) [1]: inhibit Hp CoA-transferase | Specific activity (mU/mg ± SD), 3-oxoacid CoA transferase, E. coli transformed with pCOA-t [1]: 67 ± 51 mU/mg | inhibition of the mammalian homologue (in words) [4]: not the mammalian homologue | Specific activity (mU/mg ± SD), 3-oxoacid CoA transferase, H pytori [2]: 0 ± 1 mU/mg

O=C(O)CC(S)C(=O)O (stereo not drawn) [mercapto succinic acid]
inhibition of Hp CoA-transferase (in words) [1]: inhibit Hp CoA-transferase | Specific activity (mU/mg ± SD), 3-oxoacid CoA transferase, E. coli transformed with pCOA-t [1]: 16 ± 13 mU/mg | inhibition of the mammalian homologue (in words) [4]: not the mammalian homologue | Specific activity (mU/mg ± SD), 3-oxoacid CoA transferase, H pytori [2]: 2 ± 2 mU/mg

O=C(O)CC(=O)O [disodium malonate]
Specific activity (mU/mg ± SD), 3-oxoacid CoA transferase, E. coli transformed with pCOA-t [1]: 1823 ± 162 mU/mg | Specific activity (mU/mg ± SD), 3-oxoacid CoA transferase, H pytori [2]: 27 ± 4 mU/mg
